In one series the test system is human blood. The series is described as follows: Ex vivo extracorporeal oxygenator minicircuit with ACT+ monitoring. The note with it: human blood in ex vivo minicircuit; average donor baseline 115 seconds; FIG. 25 doses: UFH 5 U/mL, 9.3T 1 μM, 11F7T 2 μM, R9D-14T 5 μM, 11F7T 0.5 μM+R9D-14T 5 μM. How it is done:
The extracorporeal minicircuit consisted of a sample line, custom-designed 8 mL Plexiglas® venous reservoir, a mechanical roller pump (MasterFlex®; Cole-Parmer Instrument Co., Vernon Hills, Ill.), and a custom-designed small-volume oxygenator that are all connected by MasterFlex precision silicone tubing (Cole-Parmer Instrument Co.) (de Lange et al, Br J Anaesth 99:177-83 (2007), de Lange et al, J Cardiothorac Surg 3:51 (2008). The 4 mL priming volume oxygenator is comprised of two Plexiglas® shells (12.8 cm×12.8 cm×2.7 cm) that cover a disposable three layer artificial diffusion membrane comprised of hollow polypropylene fibers glued together in a crosswise fashion. The surface area available for gas exchange is 558 cm^2. To prevent heat loss, one of the shells has an integrated heat exchanger, and the temperature was maintained at approximately 33° C. with a circulating water bath system (Gaymar Industries, Orchard Park, N.Y.). A MEAS reusable temperature probe (Model 451, Measurement Specialties Inc., Dayton, Ohio) was inserted into the reservoir to continuously measure the temperature, and an in-line flow probe (2N806 flow probe and T208 volume flowmeter; Transonics Systems, Inc., Ithaca, N.Y.) was used to continuously measure the blood flow. The circuit blood O2 level was maintained at 95% and the CO2 was maintained at 5%.
The minicircuit was primed with phosphate buffered saline (PBS) at a flow rate of 50 mL/min for approximately 30 min. Blood was drawn from healthy, consented volunteers and anticoagulated with 3.2% sodium citrate. Approximately 25 mL of citrated blood was incubated with 500 μL of anticoagulant (i.e., UFH or aptamer) at 37° C. for 5 min. The PBS was drained from the minicircuit, and the blood was added and circulated at a rate of 50 mL/min with 95% O2/5% CO2 at approximately 33° C. […] The venous blood gases were analyzed with a GEM Premier 3000 blood gas/electrolyte analyzer (model 5700; Instrumentation Laboratories, Inc, Lexington, Mass.) to determine the hematocrit, CaCl2, O2, and CO2 levels. […]

Series [1] deals with fibrin deposition on oxygenator membrane. The series is described as follows: Oxygenator membrane scanning electron microscopy. More on the design: species or system human. To be noted: FIG. 25 doses: UFH 5 U/mL, 9.3T 1 μM, 11F7T 2 μM, R9D-14T 5 μM, 11F7T 0.5 μM+R9D-14T 5 μM. The procedure:
After 2 hours of circulation (or until there was visible clot formation), the minicircuit was washed with three volumes (approximately 60 mL) of PBS at a flow rate of 50 mL/min. The oxygenator membrane was removed with forceps, washed with gentle rocking in PBS for approximately 30 sec, then removed and blotted. Three pieces approximately 10 mm×10 mm were excised from different areas of the membrane with a clean razor blade. The membrane pieces were fixed overnight in PBS with 4% formaldehyde and 2% glutaraldehyde, washed two times with PBS, then dehydrated in an ethanol gradient (30% to 100%). The membranes were subsequently submerged in tetramethylsilane (TMS) for 10 min, then removed and placed in a desiccator overnight. Desiccated membrane specimens measuring approximately 10 mm×7 mm were affixed with double sided tape to circular metal stubs approximately 14 mm in diameter. The specimens were gold sputter coated in a Denton Vacuum Desk IV® (Denton Vacuum LLC, Moorestown, N.J.) according to the manufacturer's instructions. The scanning electron microscopic (SEM) images were obtained with a FEI XL 30 FE SEM (FEI, Hillsboro, Oreg.).

In the case of “9.3T: FIXa aptamer, 2'-fluoropyrimidine modified RNA, SEQ ID NO: 1 (AUGGGGACUAUACCGCGUAAUGCUGCCUCCCCAU; 2'-fluoro at CU, RNA at AG, backbone not given here) [Aptamer 9.3T]”, in the series with human blood, the “ACT+ maximal clotting time” value is “had no effect”. Besides, the “fibrin deposition on oxygenator membrane, scanning electron micrographs (in words)” value in series [1] is given as “obvious fibrin deposition on the membrane”.
The corresponding values for “R9D-14T: prothrombin/thrombin aptamer, 58-base truncation of RNA9D-14, SEQ ID NO: 3 (GGCGGTCGATCACACAGTTCAAACGTAATAAGCCAATGTACGAGGCAGACGACTCGCC; 2'-fluoro at CT, RNA at AG, backbone and T or U not given here) [Aptamer R9D-14T]” are 365 s and “obvious fibrin deposition on the membrane”.
Consider “11F7T: FXa aptamer, 2'-fluoropyrimidine modified RNA, SEQ ID NO: 2 (GAGAGCCCCAGCGAGAUAAUACUUGGCCCCGCUCUU; 2'-fluoro at CU, RNA at AG, backbone not given here) [Aptamer 11F7T]”, for which the “ACT+ maximal clotting time” value in the series with human blood was 213 s. In addition, the “fibrin deposition on oxygenator membrane, scanning electron micrographs (in words)” value in series [1] is on record as “obvious fibrin deposition on the membrane”.

The values are drawn from patent publication US9687529B2, “Method of controlling coagulation” (Duke University, priority 2011, dated 2017).
